# Data reported in patent publication US7790895B2, “Quinoline derivatives as potassium ion channel openers” (Janssen Pharmaceutica NV, priority 2005, dated 2010).
# Biological target: T1, KATP channels (Homo sapiens, UniProt O60706)
# T1 construct: TE671 human medulloblastoma cells were obtained from ATCC; host or cells: TE671 human medulloblastoma cells
# Assay: Potassium Channel Assay (FLIPR membrane potential, KATP channel opening)
# Assay type: cell-based
# Conditions: TE671 human medulloblastoma cells, Membrane Potential Assay Dye, room temperature; for % Stimulation: test concentration not given
# Experimental: TE671 human medulloblastoma cells were obtained from ATCC and grown in Dulbecco's modified Eagle's medium (DMEM) supplemented with 10% fetal bovine serum, 100 U/ml penicillin and 100 U/ml streptomycine.
# The day before testing, the cells were plated in black 96-well plates at 50K/well. On the day of testing, the growth media was removed, then 100 μl of FLIPR buffer (20 mM HEPES, 120 mM NaCl, 2 mM KCl, 2 mM CaCl2, 1 mM MgCl2, 5 mM Glucose) and 100 μl of Membrane Potential Assay Dye (Molecular Devices) dissolved in FLIPR buffer were added to each well. The cells were incubated at room temperature for 15 to 30 min.
# The effect of test compounds on KATP channels were evaluated on a fluorometric imaging plate reader (FLIPR, Molecular Devices) at room temperature. After a baseline period, 50 μl of 5× stock solution of test compound prepared in FLIPR buffer was added and fluorescence change was monitored for 3 minutes. After this reading, glyburide, a KATP channel blocker, was added to a final concentration of 5 μM to check the specificity of the test compound as a KATP channel opener. Hyperpolarization resulting from KATP channel opening was observed as a decrease in fluorescence intensity.
# T1 sequence (O60706 1-1549 isoform O60706-2): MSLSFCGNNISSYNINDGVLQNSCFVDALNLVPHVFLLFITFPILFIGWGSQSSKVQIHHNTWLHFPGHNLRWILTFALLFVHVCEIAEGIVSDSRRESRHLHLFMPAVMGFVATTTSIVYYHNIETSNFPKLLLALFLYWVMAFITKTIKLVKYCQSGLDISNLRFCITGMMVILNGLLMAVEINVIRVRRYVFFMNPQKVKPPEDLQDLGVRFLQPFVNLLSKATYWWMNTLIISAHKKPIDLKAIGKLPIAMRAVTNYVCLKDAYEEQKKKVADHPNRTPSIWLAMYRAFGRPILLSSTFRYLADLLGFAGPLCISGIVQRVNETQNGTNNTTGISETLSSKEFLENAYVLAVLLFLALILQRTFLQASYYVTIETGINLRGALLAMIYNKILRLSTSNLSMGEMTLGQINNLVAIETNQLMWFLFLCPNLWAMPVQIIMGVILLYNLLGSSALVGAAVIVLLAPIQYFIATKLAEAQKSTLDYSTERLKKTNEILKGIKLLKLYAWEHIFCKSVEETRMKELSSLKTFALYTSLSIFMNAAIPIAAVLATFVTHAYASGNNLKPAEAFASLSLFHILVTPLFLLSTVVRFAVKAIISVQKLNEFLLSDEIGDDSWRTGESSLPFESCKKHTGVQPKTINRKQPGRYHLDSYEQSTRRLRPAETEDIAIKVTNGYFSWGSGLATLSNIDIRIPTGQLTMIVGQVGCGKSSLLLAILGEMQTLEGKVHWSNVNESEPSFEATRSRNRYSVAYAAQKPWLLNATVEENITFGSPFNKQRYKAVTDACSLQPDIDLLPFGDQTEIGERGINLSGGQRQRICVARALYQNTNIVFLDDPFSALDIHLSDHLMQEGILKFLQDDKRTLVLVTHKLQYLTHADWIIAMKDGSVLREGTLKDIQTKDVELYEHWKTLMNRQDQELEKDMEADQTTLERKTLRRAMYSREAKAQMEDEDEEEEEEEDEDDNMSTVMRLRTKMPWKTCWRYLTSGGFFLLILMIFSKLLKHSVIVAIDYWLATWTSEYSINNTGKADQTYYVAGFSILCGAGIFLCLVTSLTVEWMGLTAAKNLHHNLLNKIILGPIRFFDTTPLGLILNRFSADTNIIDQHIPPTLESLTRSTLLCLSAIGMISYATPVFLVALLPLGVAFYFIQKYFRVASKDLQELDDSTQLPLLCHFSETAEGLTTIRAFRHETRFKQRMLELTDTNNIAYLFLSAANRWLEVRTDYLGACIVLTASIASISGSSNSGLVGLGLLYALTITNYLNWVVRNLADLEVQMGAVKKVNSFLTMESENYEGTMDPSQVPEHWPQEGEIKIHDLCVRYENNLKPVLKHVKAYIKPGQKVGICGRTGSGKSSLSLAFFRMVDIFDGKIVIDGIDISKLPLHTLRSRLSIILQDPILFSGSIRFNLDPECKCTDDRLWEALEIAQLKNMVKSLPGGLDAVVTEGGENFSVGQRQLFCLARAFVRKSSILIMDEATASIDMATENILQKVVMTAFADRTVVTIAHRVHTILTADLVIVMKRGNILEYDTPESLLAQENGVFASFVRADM
# T1 sequence (Q14654 whole entry partner): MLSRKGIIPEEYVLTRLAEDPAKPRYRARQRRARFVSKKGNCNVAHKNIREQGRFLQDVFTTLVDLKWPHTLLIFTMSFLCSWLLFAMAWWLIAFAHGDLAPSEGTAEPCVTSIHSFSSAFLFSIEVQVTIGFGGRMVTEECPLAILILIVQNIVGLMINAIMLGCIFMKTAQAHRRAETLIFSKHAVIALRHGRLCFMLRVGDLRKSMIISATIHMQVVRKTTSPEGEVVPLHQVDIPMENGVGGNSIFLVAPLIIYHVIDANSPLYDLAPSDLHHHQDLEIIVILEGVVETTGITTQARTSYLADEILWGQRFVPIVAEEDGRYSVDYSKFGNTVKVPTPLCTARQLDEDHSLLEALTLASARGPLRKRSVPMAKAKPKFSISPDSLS
EC50 [µM],% Stimulation [%],Compound
10.5,,"N#Cc1cccc(-c2ccncc2C(O)C(F)(F)F)c1 (stereo not drawn) [Compound 39, 3-[3-(2,2,2-Trifluoro-1-hydroxy-ethyl)-pyridin-4-yl]-benzonitrile]"
> 30,,"N#Cc1cccc(-c2ccncc2C=O)c1 [Compound 51, 3-(3-Formyl-pyridin-4-yl)-benzonitrile]"
> 30,7,"COc1ccc(C(O)c2cnccc2-c2cccc(C#N)c2)cc1 (stereo not drawn) [Compound 30, 3-{3-[Hydroxy-(4-methoxy-phenyl)-methyl]-pyridin-4-yl}-benzonitrile]"
> 30,,"CCOC(=O)c1cnc2cc(C(F)(F)F)ccc2c1-c1ccc(-c2ccccc2)cc1 [Compound 5, 4-Biphenyl-4-yl-7-trifluoromethyl-quinoline-3-carboxylic acid ethyl ester]"
> 30,0,"CCOC(=O)c1cnc2cc(C(F)(F)F)ccc2c1-c1ccc(C)c(C)c1 [Compound 13, 4-(3,4-Dimethyl-phenyl)-7-trifluoromethyl-quinoline-3-carboxylic acid ethyl ester]"
20.8,,"CSc1ccc(C(O)c2cnccc2-c2cccc(C#N)c2)cc1 (stereo not drawn) [Compound 34, 3-{3-[Hydroxy-(4-methylsulfanyl-phenyl)-methyl]-pyridin-4-yl}-benzonitrile]"
19.4,,"N#Cc1cccc(-c2ccncc2C(O)c2ccc(F)cc2)c1 (stereo not drawn) [Compound 20, 3-{3-[(4-Fluoro-phenyl)-hydroxy-methyl]-pyridin-4-yl}-benzonitrile]"
9.63,,"N#Cc1cccc(-c2ccncc2C(O)c2ccccc2)c1 (stereo not drawn) [Compound 19, 3-[3-(Hydroxy-phenyl-methyl)-pyridin-4-yl]-benzonitrile]"
10.2,,"COc1ccccc1C(O)c1cnccc1-c1cccc(C#N)c1 (stereo not drawn) [Compound 28, 3-{3-[Hydroxy-(2-methoxy-phenyl)-methyl]-pyridin-4-yl}-benzonitrile]"
10.7,,"CC(C)(C)c1ccc(C(O)c2cnccc2-c2cccc(C#N)c2)cc1 (stereo not drawn) [Compound 27, 3-{3-[(4-tert-Butyl-phenyl)-hydroxy-methyl]-pyridin-4-yl}-benzonitrile]"
> 30,,"N#Cc1cccc(C2OC(O)c3cnccc32)c1 (stereo not drawn) [Compound 55, 3-(3-Hydroxy-1,3-dihydro-furo[3,4-c]pyridin-1-yl)-benzonitrile]"
> 30,,COc1ccc(CO)cc1-c1ccncc1CO [Compound 58]
17.4,,"O=C(c1ccccc1)c1ccncc1C(O)c1ccccc1 (stereo not drawn) [Compound 43, [3-(Hydroxy-phenyl-methyl)-pyridin-4-yl]-phenyl-methanone]"
26.8,,"CC(O)c1cnccc1C(=O)c1ccccc1 (stereo not drawn) [Compound 59, [3-(1-Hydroxy-ethyl)-pyridin-4-yl]-phenyl-methanone]"
> 30,,"CCOC(=O)c1cnc2cc(C(F)(F)F)ccc2c1-c1cccc(C(F)(F)F)c1 [Compound 10, 7-Trifluoromethyl-4-(3-trifluoromethyl-phenyl)-quinoline-3-carboxylic acid ethyl ester]"
6.27,,"CCOC(=O)c1cnc2cc(C(F)(F)F)ccc2c1OS(=O)(=O)C(F)(F)F [Compound 15, 4-Trifluoromethanesulfonyloxy-7-trifluoromethyl-quinoline-3-carboxylic acid ethyl ester]"
12.1,,"COc1ccc(OC)c(C(O)c2cnccc2C(=O)c2ccccc2)c1 (stereo not drawn) [Compound 46, {3-[(2,5-Dimethoxy-phenyl)-hydroxy-methyl]-pyridin-4-yl}-phenyl-methanone]"
> 30,,"CCOC(=O)c1cnc2cc(C(F)(F)F)ccc2c1-c1cc(C(F)(F)F)cc(C(F)(F)F)c1 [Compound 3, 4-(3,5-Bis-trifluoromethyl-phenyl)-7-trifluoromethyl-quinoline-3-carboxylic acid-ethyl ester]"
7.73,,"CCOC(=O)c1cnc2cc(C(F)(F)F)ccc2c1-c1cc(C=O)ccc1OC [Compound 9, 4-(5-Formyl-2-methoxy-phenyl)-7-trifluoromethyl-quinoline-3-carboxylic acid ethyl ester]"
17.2,,"CC(O)c1cnccc1-c1cccc(C#N)c1 (stereo not drawn) [Compound 52, 3-[3-(1-Hydroxy-ethyl)-pyridin-4-yl]-benzonitrile]"
> 30,,"CCOC(=O)c1cnc2cc(C(F)(F)F)ccc2c1-c1ccccc1 [Compound 6, 4-Phenyl-7-trifluoromethyl-quinoline-3-carboxylic acid ethyl ester]"
14.3,,"N#Cc1cccc(C(=O)c2ccncc2C(O)c2ccccc2)c1 (stereo not drawn) [Compound 48, 3-[3-(Hydroxy-phenyl-methyl)-pyridine-4-carbonyl]-benzonitrile]"

EC50 [µM],% Stimulation [%],Compound
9.59,,"COc1ccc(C(O)c2cnccc2-c2cccc(C#N)c2)cc1F (stereo not drawn) [Compound 37, 3-{3-[(3-Fluoro-4-methoxy-phenyl)-hydroxy-methyl]-pyridin-4-yl}-benzonitrile]"
> 30,,"CCOC(=O)c1cnc2cc(C(F)(F)F)ccc2c1-c1cc(C)cc(OC)c1 [Compound 2, 4-(3-Methoxy-5-methyl-phenyl)-7-trifluoromethyl-quinoline-3-carboxylic acid ethyl ester]"
> 30,,"OCc1cnccc1C(O)c1ccccc1 (stereo not drawn) [Compound 56, (3-Hydroxymethyl-pyridin-4-yl)-phenyl-methanol]"
> 30,2,"CCOC(=O)c1cnc2cc(C(F)(F)F)ccc2c1-c1cccc(C=O)c1 [Compound 11, 4-(3-Formyl-phenyl)-7-trifluoromethyl-quinoline-3-carboxylic acid ethyl ester]"
> 30,,"COc1ccc(F)cc1C(O)c1cnccc1-c1cccc(C#N)c1 (stereo not drawn) [Compound 36, 3-{3-[(5-Fluoro-2-methoxy-phenyl)-hydroxy-methyl]-pyridin-4-yl}-benzonitrile]"
> 30,20,"CCOC(=O)c1cnc2cc(C(F)(F)F)ccc2c1-c1cccc(CO)c1 [Compound 12, 4-(3-Hydroxymethyl-phenyl)-7-trifluoromethyl-quinoline-3-carboxylic acid ethyl ester]"
> 30,,"N#Cc1cccc(C(O)c2ccncc2CO)c1 (stereo not drawn) [Compound 57, 3-[Hydroxy-(3-hydroxymethyl-pyridin-4-yl)-methyl]-benzonitrile]"
> 30,,"Cc1cc(C)c(C(O)c2cnccc2-c2cccc(C#N)c2)c(C)c1 (stereo not drawn) [Compound 35, 3-{3-[Hydroxy-(2,4,6-trimethyl-phenyl)-methyl]-pyridin-4-yl}-benzonitrile]"
4.56,,"CCOC(=O)c1cnc2cc(C(F)(F)F)ccc2c1-c1cc(CO)ccc1OC [Compound 14, 4-(5-Hydroxymethyl-2-methoxy-phenyl)-7-trifluoromethyl-quinoline-3-carboxylic acid ethyl ester]"
9.82,,"N#Cc1cccc(-c2ccncc2C(O)c2cc(Cl)cc(Cl)c2)c1 (stereo not drawn) [Compound 25, 3-{3-[(3,5-Dichloro-phenyl)-hydroxy-methyl]-pyridin-4-yl}-benzonitrile]"
13.7,,"COc1cccc(C(O)c2cnccc2-c2cccc(C#N)c2)c1 (stereo not drawn) [Compound 29, 3-{3-[Hydroxy-(3-methoxy-phenyl)-methyl]-pyridin-4-yl}-benzonitrile]"
10.2,,"N#Cc1cccc(-c2ccncc2C(O)c2ccc(Cl)cc2)c1 (stereo not drawn) [Compound 26, 3-{3-[(4-Chloro-phenyl)-hydroxy-methyl]-pyridin-4-yl}-benzonitrile]"
15.1,,"Cc1ccc(C(O)c2cnccc2-c2cccc(C#N)c2)cc1F (stereo not drawn) [Compound 22, 3-{3-[(3-Fluoro-4-methyl-phenyl)-hydroxy-methyl]-pyridin-4-yl}-benzonitrile]"
11.6,,"COc1ccc(C(O)c2cnccc2C(=O)c2ccccc2)cc1F (stereo not drawn) [Compound 45, {3-[(3-Fluoro-4-methoxy-phenyl)-hydroxy-methyl]-pyridin-4-yl}-phenyl-methanone]"
> 30,,"OC1OC(c2ccccc2)c2ccncc21 (stereo not drawn) [Compound 65, 1-Phenyl-1,3-dihydro-furo[3,4-c]pyridin-3-ol]"
8.19,,"N#Cc1cccc(C2OCc3cnccc32)c1 (stereo not drawn) [Compound 66, 3-(1,3-Dihydro-furo[3,4-c]pyridin-1-yl)-benzonitrile]"
> 30,2,"CCOC(=O)c1cnc2cc(C(F)(F)F)ccc2c1-c1cccc(C(C)=O)c1 [Compound 7, 4-(3-Acetyl-phenyl)-7-trifluoromethyl-quinoline-3-carboxylic acid ethyl ester]"
17.4,,"CN(C)c1ccc(C(O)c2cnccc2C(=O)c2ccccc2)cc1 (stereo not drawn) [Compound 44, {3-[(4-Dimethylamino-phenyl)-hydroxy-methyl]-pyridin-4-yl}-phenyl-methanone]"
5.09,,"O=C(c1ccccc1)c1ccncc1C(O)c1cccc(F)c1 (stereo not drawn) [Compound 47, {3-[(3-Fluoro-phenyl)-hydroxy-methyl]-pyridin-4-yl}-phenyl-methanone]"
23.2,,"N#Cc1cccc(-c2ccncc2C(O)c2cccc(F)c2)c1 (stereo not drawn) [Compound 21, 3-{3-[(3-Fluoro-phenyl)-hydroxy-methyl]-pyridin-4-yl}-benzonitrile]"
> 30,,"CCOC(=O)c1cnc2cc(C(F)(F)F)ccc2c1-c1cccc(C#N)c1 [Compound 1, 4-(3-Cyano-phenyl)-7-trifluoromethyl-quinoline-3-carboxylic acid ethyl ester]"
